pIC50: −log10 of the molar value. Like-named read-outs stand apart in the source and are kept apart here.
Target: T1, PKMYT1 enzyme (Homo sapiens, UniProt Q99640)
T1 construct: purchased Thermo Scientific A33387
T1 sequence (Q99640 1-499): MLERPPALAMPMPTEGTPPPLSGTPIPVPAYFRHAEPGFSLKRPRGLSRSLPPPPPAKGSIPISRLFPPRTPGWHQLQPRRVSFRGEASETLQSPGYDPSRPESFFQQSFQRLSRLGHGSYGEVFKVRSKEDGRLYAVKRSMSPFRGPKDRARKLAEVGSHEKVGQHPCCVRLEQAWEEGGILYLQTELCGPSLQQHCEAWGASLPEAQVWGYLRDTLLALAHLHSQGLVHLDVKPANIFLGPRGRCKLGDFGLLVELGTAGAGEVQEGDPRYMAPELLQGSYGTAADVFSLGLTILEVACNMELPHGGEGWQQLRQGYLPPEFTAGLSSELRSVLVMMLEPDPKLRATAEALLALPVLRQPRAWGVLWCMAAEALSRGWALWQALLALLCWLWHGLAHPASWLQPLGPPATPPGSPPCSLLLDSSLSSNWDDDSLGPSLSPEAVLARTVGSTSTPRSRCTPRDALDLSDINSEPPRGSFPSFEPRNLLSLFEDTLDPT
Assay: PKMYT1 enzyme inhibition activity, ADP-GLO method
Assay type: biochemical

[1] = read-out: ADP-GLO IC50; PKMYT1 enzyme 10 nM, ATP 5 µM, 37°C 90 minutes
[2] = PKMYT1 enzyme 10 nM, ATP 5 µM, 37°C 90 minutes; read-out: ADP-GLO IC50

SMILES | pIC50 [1] | pIC50 [2]
Cc1nc(C)c2c(C(N)=O)c(N)n(-c3c(C)ccc(O)c3C)c2n1 (atropisomer, axis not shown) [Example 19.2] | 8.02 | 
Cc1cc2c(C(N)=O)c(N)n(-c3c(C)c(O)cc(F)c3C)c2nc1C (atropisomer, axis not shown) [Example 22] |  | 7.07
Cc1ccc(O)c(C)c1-n1c(N)c(C(N)=O)c2cnc(CC(C)C)nc21 (atropisomer, axis not shown) [Example 57.1] | 7.82 | 
Cc1cc(F)c(O)c(C)c1-n1c(N)c(C(N)=O)c2cc(Cl)c(C)nc21 (atropisomer, axis not shown) [Example 60.2] |  | 8.73
CCc1nc(C)nc2c1c(C(N)=O)c(N)n2-c1c(C)ccc(O)c1C (atropisomer, axis not shown) [Example 66.1] |  | 7.78
Cc1ncc2c(C(N)=O)c(N)n(-c3c(C)c(O)cc(F)c3C)c2c1F (atropisomer, axis not shown) [Example 71.1] |  | 8.37
Cc1c(O)cc(F)c(C)c1-n1c(N)c(C(N)=O)c2cc(C(C)C)cnc21 (atropisomer, axis not shown) [Example 113.1] |  | 7.03
CCc1cc2c(C(N)=O)c(N)n(-c3c(C)cc(F)c(O)c3C)c2nc1C (atropisomer, axis not shown) [Example 143] |  | 7.74
Cc1cc(F)c(O)c(C)c1-n1c(N)c(C(N)=O)c2cc(C3CC3)cnc21 (atropisomer, axis not shown) [Example 144] |  | 8.24
Cc1cc(F)c(O)c(C)c1-n1c(N)c(C(N)=O)c2cc(C(F)(F)F)cnc21 (atropisomer, axis not shown) [Example 154.2] |  | 8.29
COc1cc2c(C(N)=O)c(N)n(-c3c(C)cc(F)c(O)c3C)c2nc1C (atropisomer, axis not shown) [Example 158.1] |  | 8.12
Cc1cc(F)c(O)c(C)c1-n1c(N)c(C(N)=O)c2cc(N3CCCC3)c(C)nc21 (atropisomer, axis not shown) [Example 162.1] |  | 8.04
Cc1cc(F)c(O)c(C)c1-n1c(N)c(C(N)=O)c2cc(C3CCOCC3)c(C)nc21 (atropisomer, axis not shown) [Example 163.1] |  | 8.24
Cc1cc(F)c(O)c(C)c1-n1c(N)c(C(N)=O)c2cc(C3CCOCC3)c(C)nc21 (atropisomer, axis not shown) [Example 163] |  | 7.63
Cc1cc(F)c(O)c(C)c1-n1c(N)c(C(N)=O)c2cc(CC(C)C)c(C)nc21 (atropisomer, axis not shown) [Example 166.2] |  | 8.42
Cc1cc(F)c(O)c(C)c1-n1c(N)c(C(N)=O)c2cc(C(C)(C)O)c(C)nc21 (atropisomer, axis not shown) [Example 172.1] |  | 8.34
Cc1cc(F)c(O)c(C)c1-n1c(N)c(C(N)=O)c2cc(C3=CCOCC3)c(C)nc21 (atropisomer, axis not shown) [Example 175] |  | 8.32
Cc1cc(F)c(O)c(C)c1-n1c(N)c(C(N)=O)c2cc3c(nc21)CCCC3 (atropisomer, axis not shown) [Example 177.2] |  | 8.09
Cc1cc(F)c(O)c(C)c1-n1c(N)c(C(N)=O)c2c3c(cnc21)CCC3 (atropisomer, axis not shown) [Example 186.2] |  | 8.41
Cc1ccc(O)c(C)c1-n1c(N)c(C(N)=O)c2cc3c(nc21)CCO3 (atropisomer, axis not shown) [Example 190.2] | 8.65 | 
[2H]C([2H])([2H])c1nc2c(cc1C(F)(F)F)c(C(N)=O)c(N)n2-c1c(C)cc(F)c(O)c1C (atropisomer, axis not shown) [Example 194.1] |  | 8.28
[2H]C([2H])([2H])c1c(O)c(F)cc(C)c1-n1c(N)c(C(N)=O)c2cc(C(F)(F)F)c(C)nc21 (atropisomer, axis not shown) [Example 195.1] |  | 8.55
Cc1cc(F)c(O)c(C)c1-n1c(N)c(C(N)=O)c2cc(Cl)c(C)nc21 (racemic) [Example 60] |  | 8.37
Cc1nc(C2CC2)c2c(C(N)=O)c(N)n(-c3c(C)ccc(O)c3C)c2n1 (racemic) [Example 62] |  | 7.77
Cc1ncc2c(C(N)=O)c(N)n(-c3c(C)c(O)cc(F)c3C)c2n1 (racemic) [Example 63] |  | 8.29
CCc1nc(C)nc2c1c(C(N)=O)c(N)n2-c1c(C)ccc(O)c1C (racemic) [Example 66] |  | 7.65
Cc1ncc2c(C(N)=O)c(N)n(-c3c(C)c(O)cc(F)c3C)c2c1F (racemic) [Example 71] |  | 8.10

SMILES | pIC50 [1] | pIC50 [2]
Cc1cc(F)c(O)c(C)c1-n1c(N)c(C(N)=O)c2cc(C(F)(F)F)cnc21 (racemic) [Example 154] |  | 7.86
COc1cc2c(C(N)=O)c(N)n(-c3c(C)cc(F)c(O)c3C)c2nc1C (racemic) [Example 158] |  | 8.09
Cc1cc(F)c(O)c(C)c1-n1c(N)c(C(N)=O)c2cc(N3CCCC3)c(C)nc21 (racemic) [Example 162] |  | 7.84
Cc1cc(F)c(O)c(C)c1-n1c(N)c(C(N)=O)c2cc(CC(C)C)c(C)nc21 (racemic) [Example 166] |  | 8.08
Cc1cc(F)c(O)c(C)c1-n1c(N)c(C(N)=O)c2cc(N(C)C)c(C)nc21 (racemic) [Example 169] |  | 7.58
Cc1cc(F)c(O)c(C)c1-n1c(N)c(C(N)=O)c2cc(C(C)C)cnc21 (racemic) [Example 170] |  | 7.74
Cc1cc(F)c(O)c(C)c1-n1c(N)c(C(N)=O)c2cc(C(C)(C)O)c(C)nc21 (racemic) [Example 172] |  | 7.79
Cc1cc(F)c(O)c(C)c1-n1c(N)c(C(N)=O)c2cc(N3CCC3)c(C)nc21 (racemic) [Example 173] |  | 8.11
Cc1cc(F)c(O)c(C)c1-n1c(N)c(C(N)=O)c2c3c(c(C)nc21)CCC3 (racemic) [Example 176] |  | 8.01
Cc1cc(F)c(O)c(C)c1-n1c(N)c(C(N)=O)c2cc3c(nc21)CCCC3 (racemic) [Example 177] |  | 7.46
Cc1cc(F)c(O)c(C)c1-n1c(N)c(C(N)=O)c2c3c(cnc21)CCC3 (racemic) [Example 186] |  | 8.13
Cc1ccc(O)c(C)c1-n1c(N)c(C(N)=O)c2cc3c(nc21)OCCO3 (racemic) [Example 188] |  | 7.98
Cc1ccc(O)c(C)c1-n1c(N)c(C(N)=O)c2c3cnccc3c(C)cc21 (racemic) [Example 189, 8-amino-7-(3-hydroxy-2,6-dimethylphenyl)-S-methyl-7H-pyrrolo[2,3-h]isoquinoline-9-carboxamide] |  | 8.30
Cc1ccc(O)c(C)c1-n1c(N)c(C(N)=O)c2cc3c(nc21)CCO3 (racemic) [Example 190] | 8.31 | 
[2H]C([2H])([2H])c1nc2c(cc1C(F)(F)F)c(C(N)=O)c(N)n2-c1c(C)cc(F)c(O)c1C (racemic) [Example 194] |  | 8.20
[2H]C([2H])([2H])c1c(O)c(F)cc(C)c1-n1c(N)c(C(N)=O)c2cc(C(F)(F)F)c(C)nc21 (racemic) [Example 195] |  | 8.34
C=Cc1cc2c(C(N)=O)c(N)n(-c3c(C)cc(F)c(O)c3C)c2nc1C (single isomer, unassigned) [Example 142.1] |  | 8.00
CCc1cc2c(C(N)=O)c(N)n(-c3c(C)cc(F)c(O)c3C)c2nc1C (single isomer, unassigned) [Example 143.1] |  | 7.70
Cc1cc(F)c(O)c(C)c1-n1c(N)c(C(N)=O)c2cc(C3CC3)cnc21 (single isomer, unassigned) [Example 144.1] |  | 8.68
Cc1ccc(O)c(C)c1-n1c(N)c(C(N)=O)c2cnc(C(F)(F)F)nc21 [Example 4, 6-Amino-7-(3-hydroxy-2,6-dimethylphenyl)-2-(trifluoromethyl)-7H-pyrrolo[2,3-d]pyrimidine-5-carboxamide] |  | 7.60
Cc1ccc(O)c(C)c1-n1c(N)c(C(N)=O)c2cnc(Cl)nc21 [Example 5, 6-Amino-2-chloro-7-(3-hydroxy-2,6-dimethylphenyl)-7H-pyrrolo[2,3-d]pyrimidine-5-carboxamide] |  | 8.10
C=Cc1ncc2c(C(N)=O)c(N)n(-c3c(C)ccc(O)c3C)c2n1 [Example 6, 6-Amino-7-(3-hydroxy-2,6-dimethylphenyl)-2-vinyl-7H-pyrrolo[2,3-d]pyrimidine-5-carboxamide] |  | 8.00
Cc1ccc(O)c(C)c1-n1c(N)c(C(N)=O)c2cnc(Br)nc21 [Example 7, 6-Amino-2-bromo-7-(3-hydroxy-2,6-dimethylphenyl)-7H-pyrrolo[2,3-d]pyrimidine-5-carboxamide] |  | 8.03
CCc1ncc2c(C(N)=O)c(N)n(-c3c(C)ccc(O)c3C)c2n1 [Example 8, 6-Amino-2-ethyl-7-(3-hydroxy-2,6-dimethylphenyl)-7H-pyrrolo[2,3-d]pyrimidine-5-carboxamide] |  | 7.98
Cc1ccc(O)c(C)c1-n1c(N)c(C(N)=O)c2cnc(C3=CCCCC3)nc21 [Example 9, 6-Amino-2-(cyclohex-1-en-1-yl)-7-(3-hydroxy-2,6-dimethylphenyl)-7H-pyrrolo[2,3-d]pyrimidine-5-carboxamide] |  | 8.04
Cc1ccc(O)c(C)c1-n1c(N)c(C(N)=O)c2cnc(C3CCCCC3)nc21 [Example 10, 6-Amino-2-cyclohexyl-7-(3-hydroxy-2,6-dimethylphenyl)-7H-pyrrolo[2,3-d]pyrimidine-5-carboxamide] |  | 7.89

From patent EP4624471A1, “PKMYT1 INHIBITOR, PREPARATION METHOD THEREFOR, AND PHARMACEUTICAL COMPOSITION AND USE THEREOF” (Shanghai Qilu Pharmaceutical Research and Development …, priority 2022, dated 2024)
